Experimental data reported in patent US20240391862A1, “(1,4,5-TRISUBSTITUTED-1H-PYRAZOL-3-YL)OXY-2-ALKOXY ALKYL ACIDS AND THEIR DERIVATIVES, THEIR SALTS AND THEIR USE AS HERBICIDAL AGENTS” (Bayer AKtiengesellschaft, priority 2021, published 2024).

Assays:
GLXMA = experiment: Pre-emergence herbicidal effect and crop plant compatibility, greenhouse pot test; format: in vivo, Glycine max; settings: 80 g/ha, scored visually after about 3 weeks vs untreated controls
Excerpt: (§1) Seeds of monocotyledonous and dicotyledonous weed plants and crop plants are placed in plastic or organic planting pots and covered with soil. The compounds of the invention, formulated in the form of wettable powders (WP) or as emulsion concentrates (EC), are then applied to the surface of the covering soil as aqueous suspension or emulsion with addition of 0.5% additive at a water application rate equivalent to 600 l/ha. After the treatment, the pots are placed in a greenhouse and kept under good growth conditions for the trial plants. After about 3 weeks, the effect of the preparations is scored visually in comparison with untreated controls as percentages. For example, 100% activity=the plants have died, 0% activity=like control plants.
(§2) Tables 1a to 19c below show the effects/crop compatibilities of selected compounds of the general formula (I) on various harmful plants at an application rate corresponding to 20 to 320 g/ha, which were obtained by the trial procedure specified above.
(§3) • ALOMY: Alopecurus myosuroides SETVI: Setaria viridis • AVEFA: Avena fatua POLCO: Fallopia convolvulus • AMARE: Amaranthus retroflexus ECHCG: Echinochloa crus-galli • LOLRJ: Lolium rigidum STEME: Stellaria media • VERPE: Veronica persica MATIN: Tripleurospermum inodorum • DIGSA: Digitaria sanguinalis ABUTH: Abutylon threophrasti • TRZAS: Triticum aestivum VIOTR: Viola tricolor • BRSNW: Brassica napus ZEAMX: Zea mays • PHBPU: Ipomoea purpurea GLXMA: Glycine max • ORYSA: Oryza sativa HORMU: Hordeum murinum

ABUTH = experiment: Post-emergence herbicidal effect, greenhouse pot test; format: in vivo, Abutilon theophrasti; settings: Abutilon theophrasti, 504 h, visual rating about 3 weeks after treatment, read-out: Post-emergence effect against ABUTH
Summary of the method: (§4)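 Visual % activity scored roughly 3 weeks post-spray against untreated plants, where 100% means death and 0% equals control. Plants were treated at the one-leaf stage, 2 to 3 weeks after sowing in sandy loam, at 20 to 320 g/ha.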

various unwanted plants = experiment: Pre-emergence effect against various unwanted plants (PE): comparative test of I-01 with compounds from WO2020/245044 (Tables 40a, 40b) and summary statements; format: in vivo
Excerpt: Seeds of monocotyledonous and dicotyledonous weed plants and crop plants are placed in plastic or organic planting pots and covered with soil. The compounds of the invention, formulated in the form of wettable powders (WP) or as emulsion concentrates (EC), are then applied to the surface of the covering soil as aqueous suspension or emulsion with addition of 0.5% additive at a water application rate equivalent to 600 l/ha. After the treatment, the pots are placed in a greenhouse and kept under good growth conditions for the trial plants. After about 3 weeks, the effect of the preparations is scored visually in comparison with untreated controls as percentages. For example, 100% activity=the plants have died, 0% activity=like control plants. Tables 40a and 40b below show the effects of the inventive compound (I-01) with structurally similar compounds (from WO2020/245044) on various harmful plants at an application rate corresponding to 320 g/ha or less, which have been obtained by the trial procedure specified hereinafter. The inventive compound (I-01) differs here by variance of a significant structural feature from the structurally similar compound with regard to the R^2 radical. Seeds of monocotyledonous and dicotyledonous weed plants and crop plants are placed in plastic or organic planting pots and covered with soil. The compounds of the invention, formulated in the form of wettable powders (WP) or as emulsion concentrates (EC), are then applied to the surface of the covering soil as aqueous suspension or emulsion with addition of 0.5% additive at a water application rate equivalent to 600 l/ha. After the treatment, the pots are placed in a greenhouse and kept under good growth conditions for the trial plants. After about 3 weeks, the effect of the preparations is scored visually in comparison with untreated controls as percentages. For example, 100% activity=the plants have died, 0% activity=like control plants. Effects/crop compatibilities of selected compounds (Table 39) on various harmful plants at an application rate corresponding to 80 to 320 g/ha that have been obtained by the trial procedure specified hereinabove are shown in Tables 40a and 40b below.

POLCO = experiment: Post-emergence herbicidal effect, greenhouse pot test; format: in vivo, Fallopia convolvulus; settings: Fallopia convolvulus, 504 h, read-out: Post-emergence effect against POLCO in %
Summary of the method: as §4

VERPE = experiment: Pre-emergence herbicidal effect, greenhouse pot test; format: in vivo, Veronica persica; settings: scored visually after about 3 weeks vs untreated controls
Excerpt: as §1, §2, §3

VIOTR = experiment: as above; format: in vivo, Viola tricolor; settings: scored visually after about 3 weeks vs untreated controls
Excerpt: as §1, §2, §3

AVEFA = experiment: as above; format: in vivo, Avena fatua; settings: 320 g/ha, scored visually after about 3 weeks vs untreated controls
Summary of the method: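 Visual scoring at about 3 weeks after treatment, as percent versus untreated controls, 100% meaning dead plants and 0% like controls. Compounds, formulated as wettable powders or emulsion concentrates, were sprayed onto the covering soil of freshly sown pots at 20 to 320 g/ha in 600 l/ha water with 0.5% additive.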

| SMILES | Pre-emergence effect at 80 g/ha against GLXMA in % (GLXMA) [%] | pest or weed control at 80 g/ha (ABUTH; 80 g/ha) [%] | pest or weed control at 320 g/ha (ABUTH) [%] | Pre-emergence effect, Effect %, ALOMY (various unwanted plants; ALOMY, 320 g/ha, comparative test) [%] | Pre-emergence effect, Effect %, ECHCG (various unwanted plants; 80 g/ha, comparative test) [%] | Pre-emergence effect, Effect %, ECHCG (various unwanted plants; 320 g/ha, comparative test) [%] | Pre-emergence effect, Effect %, LOLRI (various unwanted plants; 80 g/ha, comparative test) [%] | Pre-emergence effect, Effect %, LOLRI (various unwanted plants; 320 g/ha, comparative test) [%] | Pre-emergence effect, Effect %, MATIN (various unwanted plants; 80 g/ha, comparative test) [%] | Pre-emergence effect, Effect %, MATIN (various unwanted plants; 320 g/ha, comparative test) [%] | Pre-emergence effect, Effect %, POLCO (various unwanted plants; POLCO, 80 g/ha, comparative test) [%] | Pre-emergence effect, Effect %, SETVI (various unwanted plants; SETVI, 320 g/ha, comparative test) [%] | herbicidal efficacy by comparison to the structurally similar compounds (Tables 40a and 40b) (various unwanted plants; different harmful plants, 320 g or less per hectare, vs compounds from WO2020/245044) | pest or weed control at 80 g/ha (POLCO; 80 g/ha) [%] | pest or weed control at 320 g/ha (POLCO) [%] | Pre-emergence effect at 320 g/ha against VERPE in % (VERPE) [%] | Pre-emergence effect at 80 g/ha against VIOTR in % (VIOTR; 80 g/ha) [%] | Pre-emergence effect at 320 g/ha against VIOTR in % (VIOTR) [%] | Pre-emergence effect at 320 g/ha against AVEFA in % (AVEFA) [%] |
| --- | --- | --- | --- | --- | --- | --- | --- | --- | --- | --- | --- | --- | --- | --- | --- | --- | --- | --- | --- |
| CCOC(=O)C(OCC)Oc1nn(-c2ccccc2F)c(-c2ccc(F)nc2)c1Br (racemic) [Example I-01, Ethyl (2RS)-{[4-bromo-1-(2-fluorophenyl)-5-(6-fluoropyridin-3-yl)-1H-pyrazol-3-yl]oxy}(ethoxy)acetate] | 0 | 80 | 90 | 90 | 70 | 100 | 90 | 100 | 90 | 90 | 80 | 100 | distinctly improved herbicidal efficacy | 80 | 80 | 80 | – | – | – |
| COC(=O)C(OC)Oc1nn(-c2ccccc2F)c(-c2ccc(F)nc2)c1Br (racemic) [Example I-04, Methyl (2RS)-{[4-bromo-1-(2-fluorophenyl)-5-(6-fluoropyridin-3-yl)-1H-pyrazol-3-yl]oxy}(methoxy)acetate] | – | – | 80 | – | – | – | – | – | – | – | – | – | – | – | – | 90 | 80 | 100 | 80 |
| COC(=O)C(OC)Oc1nn(-c2ncccc2F)c(-c2ccc(F)nc2)c1Br (stereo not shown) [Example I-05] | 10 | – | – | – | – | – | – | – | – | – | – | – | – | – | 80 | – | – | 100 | 90 |
